Source: patent US20050282743A1, “Molecular interactions in cells” (Arbor Vita Corporation, priority 2001, published 2005)
pKd: −log10 of the molar value. Where two headings read alike, the source gives them in different places. Peptide text beside a SMILES is read from it. * marks the point of attachment. Biotin = O=C1N[C@H]2[C@H](CS[C@H]2CCCCC(=O)*)N1

How the values were obtained:
[1] = target: T1, PDZ-domain polypeptide (GST/PDZ fusion protein) (Homo sapiens, UniProt Q12923); experiment: Apparent affinity (Kd) by titration of PL peptide in the G assay; assay type: binding; details: PDZ PTPL-1, PDZ Domain 2
T1 construct: made in house; host or cells: E. coli (DH5alpha, BL21 or JM109)
T1 sequence (Q12923 whole entry, the tested form may be a part): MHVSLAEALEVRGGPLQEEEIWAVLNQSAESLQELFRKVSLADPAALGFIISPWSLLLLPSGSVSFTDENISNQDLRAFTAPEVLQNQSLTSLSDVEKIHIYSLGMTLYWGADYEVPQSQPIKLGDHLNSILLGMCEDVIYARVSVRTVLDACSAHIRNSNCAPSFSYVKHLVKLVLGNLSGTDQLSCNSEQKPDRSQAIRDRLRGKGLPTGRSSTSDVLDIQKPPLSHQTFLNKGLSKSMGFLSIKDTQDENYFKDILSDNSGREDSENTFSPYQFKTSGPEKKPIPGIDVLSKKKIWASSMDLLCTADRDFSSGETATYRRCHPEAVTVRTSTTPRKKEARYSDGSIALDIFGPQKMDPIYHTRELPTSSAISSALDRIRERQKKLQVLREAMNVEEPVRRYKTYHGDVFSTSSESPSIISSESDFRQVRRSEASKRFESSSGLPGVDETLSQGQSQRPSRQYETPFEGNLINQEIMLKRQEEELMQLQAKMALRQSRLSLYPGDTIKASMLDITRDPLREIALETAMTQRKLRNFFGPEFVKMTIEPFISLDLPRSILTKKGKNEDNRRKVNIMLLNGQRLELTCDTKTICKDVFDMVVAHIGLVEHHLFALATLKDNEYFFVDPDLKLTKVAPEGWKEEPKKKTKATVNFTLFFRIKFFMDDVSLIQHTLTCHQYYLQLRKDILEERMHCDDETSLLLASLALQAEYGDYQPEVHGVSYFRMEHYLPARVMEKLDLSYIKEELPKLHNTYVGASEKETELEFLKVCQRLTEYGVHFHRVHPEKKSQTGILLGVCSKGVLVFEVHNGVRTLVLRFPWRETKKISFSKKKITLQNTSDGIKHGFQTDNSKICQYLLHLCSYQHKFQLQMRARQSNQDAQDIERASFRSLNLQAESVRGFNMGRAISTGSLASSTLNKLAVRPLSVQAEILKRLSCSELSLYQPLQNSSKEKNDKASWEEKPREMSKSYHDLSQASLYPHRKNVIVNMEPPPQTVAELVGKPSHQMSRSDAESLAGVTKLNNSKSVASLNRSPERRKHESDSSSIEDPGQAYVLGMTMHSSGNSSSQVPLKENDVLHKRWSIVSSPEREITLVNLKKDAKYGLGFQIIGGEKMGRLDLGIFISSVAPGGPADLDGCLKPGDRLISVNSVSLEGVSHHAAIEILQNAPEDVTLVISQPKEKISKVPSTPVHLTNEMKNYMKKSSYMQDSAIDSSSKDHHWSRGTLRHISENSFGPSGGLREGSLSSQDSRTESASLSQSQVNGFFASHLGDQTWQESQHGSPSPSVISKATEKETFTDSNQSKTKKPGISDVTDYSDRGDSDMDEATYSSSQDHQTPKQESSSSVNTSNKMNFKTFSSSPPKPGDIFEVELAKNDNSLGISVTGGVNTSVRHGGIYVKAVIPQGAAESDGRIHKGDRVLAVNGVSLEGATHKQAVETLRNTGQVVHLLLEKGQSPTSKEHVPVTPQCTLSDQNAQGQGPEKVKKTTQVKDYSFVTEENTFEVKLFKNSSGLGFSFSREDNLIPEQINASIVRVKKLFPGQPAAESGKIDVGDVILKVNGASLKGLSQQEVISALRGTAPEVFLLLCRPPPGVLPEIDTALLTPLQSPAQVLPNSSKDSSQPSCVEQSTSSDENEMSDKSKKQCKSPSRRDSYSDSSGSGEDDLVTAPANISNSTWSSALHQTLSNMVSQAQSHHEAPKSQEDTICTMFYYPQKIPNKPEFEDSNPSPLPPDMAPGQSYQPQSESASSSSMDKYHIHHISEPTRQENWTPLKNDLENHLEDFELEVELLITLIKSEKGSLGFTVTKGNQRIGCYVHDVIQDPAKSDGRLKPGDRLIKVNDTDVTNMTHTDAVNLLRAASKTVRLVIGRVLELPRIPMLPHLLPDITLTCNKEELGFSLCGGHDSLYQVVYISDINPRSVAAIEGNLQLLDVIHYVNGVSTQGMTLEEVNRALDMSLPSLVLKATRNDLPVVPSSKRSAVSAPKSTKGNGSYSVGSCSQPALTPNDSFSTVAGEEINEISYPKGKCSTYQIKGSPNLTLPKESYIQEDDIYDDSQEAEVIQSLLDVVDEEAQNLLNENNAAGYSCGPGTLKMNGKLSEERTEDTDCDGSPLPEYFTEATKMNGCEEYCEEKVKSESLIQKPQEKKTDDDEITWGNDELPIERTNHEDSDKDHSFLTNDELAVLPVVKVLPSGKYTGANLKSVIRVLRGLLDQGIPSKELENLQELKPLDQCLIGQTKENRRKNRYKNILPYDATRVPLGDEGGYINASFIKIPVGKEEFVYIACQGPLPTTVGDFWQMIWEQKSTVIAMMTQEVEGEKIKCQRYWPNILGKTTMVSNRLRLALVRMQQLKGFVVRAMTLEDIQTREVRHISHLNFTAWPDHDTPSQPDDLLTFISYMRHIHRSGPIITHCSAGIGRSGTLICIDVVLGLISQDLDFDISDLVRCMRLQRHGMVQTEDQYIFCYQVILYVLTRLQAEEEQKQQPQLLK
In short: (§1)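 A fixed concentration of GST/PDZ fusion protein, 5 ug/ml by default, was mixed in solution with increasing labeled PL peptide (e.g. 0.1 uM-1 mM). Reaction times ranged from 10 minutes to 2 days at 4-37° C. Complexes were separated from free peptide and detected via the label as in the G assay, apparent affinity coming from the saturating concentration.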

[2] = target: T2, PDZ-domain polypeptide (GST/PDZ fusion protein) (Homo sapiens, UniProt Q5TCQ9); experiment: as above; assay type: binding
T2 construct: made in house; host or cells: E. coli (DH5alpha, BL21 or JM109)
T2 sequence (Q5TCQ9 1-1481): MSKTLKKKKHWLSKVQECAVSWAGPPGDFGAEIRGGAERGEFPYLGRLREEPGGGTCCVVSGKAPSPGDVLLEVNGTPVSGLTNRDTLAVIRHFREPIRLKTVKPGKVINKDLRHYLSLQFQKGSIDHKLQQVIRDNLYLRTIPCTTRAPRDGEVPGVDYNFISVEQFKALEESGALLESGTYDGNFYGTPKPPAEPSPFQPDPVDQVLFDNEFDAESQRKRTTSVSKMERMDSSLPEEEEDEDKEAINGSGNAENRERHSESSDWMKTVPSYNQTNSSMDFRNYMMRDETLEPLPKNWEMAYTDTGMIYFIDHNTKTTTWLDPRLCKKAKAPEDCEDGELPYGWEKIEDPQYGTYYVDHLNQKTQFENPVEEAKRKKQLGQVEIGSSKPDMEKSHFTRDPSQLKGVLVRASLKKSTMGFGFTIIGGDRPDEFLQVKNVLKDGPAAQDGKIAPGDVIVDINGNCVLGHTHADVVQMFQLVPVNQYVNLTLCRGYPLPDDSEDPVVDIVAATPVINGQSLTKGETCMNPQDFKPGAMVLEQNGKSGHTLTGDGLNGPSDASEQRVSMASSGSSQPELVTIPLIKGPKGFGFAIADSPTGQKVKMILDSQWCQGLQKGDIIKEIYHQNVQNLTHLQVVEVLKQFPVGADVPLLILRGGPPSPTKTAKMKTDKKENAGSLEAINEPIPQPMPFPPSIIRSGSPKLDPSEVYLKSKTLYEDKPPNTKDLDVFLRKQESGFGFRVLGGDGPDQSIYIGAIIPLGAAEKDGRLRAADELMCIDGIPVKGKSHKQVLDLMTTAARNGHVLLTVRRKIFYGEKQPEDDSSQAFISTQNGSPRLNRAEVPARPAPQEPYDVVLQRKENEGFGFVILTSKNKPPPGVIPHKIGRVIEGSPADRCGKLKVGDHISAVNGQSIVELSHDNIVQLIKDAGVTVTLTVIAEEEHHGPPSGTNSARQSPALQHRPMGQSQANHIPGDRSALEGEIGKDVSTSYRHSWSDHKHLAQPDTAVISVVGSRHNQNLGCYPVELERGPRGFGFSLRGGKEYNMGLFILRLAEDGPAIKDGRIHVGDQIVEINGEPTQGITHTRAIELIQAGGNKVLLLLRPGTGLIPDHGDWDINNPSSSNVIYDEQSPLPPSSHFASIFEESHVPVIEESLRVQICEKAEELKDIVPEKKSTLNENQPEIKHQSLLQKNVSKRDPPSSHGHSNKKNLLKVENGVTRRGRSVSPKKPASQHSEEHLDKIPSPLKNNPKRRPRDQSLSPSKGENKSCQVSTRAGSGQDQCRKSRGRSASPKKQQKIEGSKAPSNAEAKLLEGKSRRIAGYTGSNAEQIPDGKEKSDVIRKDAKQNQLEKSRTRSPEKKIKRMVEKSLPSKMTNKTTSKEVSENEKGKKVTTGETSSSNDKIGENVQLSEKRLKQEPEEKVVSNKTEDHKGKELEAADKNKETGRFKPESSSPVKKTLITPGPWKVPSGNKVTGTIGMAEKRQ
In short: as §1

pKd ([1]; read-out: Peptide Optimal Conc (non-zero value: Kd by titration of the PL peptide))	pKd ([2]; PDZ KIAA1634, PDZ Domain 2, read-out: Peptide Optimal Conc (non-zero value: Kd by titration of the PL peptide))	SMILES	pKd ([1]; Protein Optimal Conc 5, read-out: Peptide Optimal Conc (Kd by titration of the PL peptide))	pKd ([2]; PDZ KIAA1634, PDZ Domain 2, Protein Optimal Conc 5, read-out: Peptide Optimal Conc (Kd by titration of the PL peptide))	pKd ([2]; PDZ KIAA1634, PDZ Domain 4, Protein Optimal Conc 5, read-out: Peptide Optimal Conc (Kd by titration of the PL peptide))
5.22	5.15	CC[C@H](C)[C@H](NC(=O)[C@H](Cc1c[nH]cn1)NC(=O)[C@H](C)NC(=O)[C@H](C)NC(=O)[C@H](CO)NC(=O)[C@@H]1CCCN1C(=O)[C@H](CCCNC(=N)N)NC(=O)[C@H](CC(=O)O)NC(=O)[C@H](CCCCN)NC(=O)[C@@H]1CCCN1C(=O)[C@H](CC(=O)O)NC(=O)[C@H](CCC(=O)O)NC(=O)CCCC[C@@H]1SC[C@@H]2NC(=O)N[C@@H]21)C(=O)N[C@H](C(=O)N[C@@H](CCC(=O)O)C(=O)N[C@@H](C)C(=O)N[C@@H](CC(C)C)C(=O)N[C@@H](CCC(=O)O)C(=O)N[C@H](C(=O)N[C@@H](CC(=O)O)C(=O)N[C@H](C(=O)O)C(C)C)[C@@H](C)O)C(C)C [PDZ-binding kinase (PBK)] (Biotin-EDPKDRPSAAHIVEALETDV-OH; C-terminus assumed)	–	–	–
–	–	CC[C@H](C)[C@H](NC(=O)[C@H](CCCCN)NC(=O)[C@@H](NC(=O)[C@H](CO)NC(=O)[C@@H]1CCCN1C(=O)[C@H](Cc1ccccc1)NC(=O)[C@@H](NC(=O)[C@@H](NC(=O)[C@H](CCCNC(=N)N)NC(=O)[C@H](CCC(=O)O)NC(=O)[C@H](CC(C)C)NC(=O)[C@H](CC(C)C)NC(=O)[C@H](CC(C)C)NC(=O)[C@@H](NC(=O)CNC(=O)[C@@H](NC(=O)CCCC[C@@H]1SC[C@@H]2NC(=O)N[C@@H]21)C(C)C)[C@@H](C)O)C(C)C)[C@@H](C)CC)C(C)C)C(=O)N[C@@H](C)C(=O)N[C@H](C(=O)N[C@@H](CC(C)C)C(=O)N[C@H](C(=O)O)C(C)C)[C@@H](C)O [Adenovirus E4 Type9]	6.70	6.82	6.70
